Experimental data: ChEMBL document CHEMBL5696442, “Discovery of type II inhibitors of TGFβ-activated kinase 1 (TAK1) and mitogen-activated protein kinase kinase kinase kinase 2 (MAP4K2)” (J Med Chem, 2015)
The source made the active and inactive calls. The calls are words filed in the database; no cut-off is given here.

Experiments:
[1] = target: Ribosomal protein S6 kinase alpha-3 (Homo sapiens) (UniProt P51812); experiment: Inhibition of RSK2 domain1 ACT labeling site harbouring LTDFGLSKESIDHEKK in human Huh-7 cell lysate at 1 uM by KiNativ Profiling analysis relative to control; type: subcellular
[2] = target: Cyclin-dependent kinase 8 (Homo sapiens) (UniProt P49336); experiment: Inhibition of CDK8 Lys2 labeling site in human Huh-7 cell lysate at 1 uM by KiNativ Profiling analysis relative to control; type: subcellular
[3] = target: Serine/threonine-protein kinase ATR (Homo sapiens) (UniProt Q13535); experiment: Inhibition of ATR in human Huh-7 cells at 1 uM by KiNativ Profiling analysis relative to control; type: cell-based
[4] = target: Phosphatidylinositol 4,5-bisphosphate 3-kinase catalytic subunit alpha isoform (Homo sapiens) (UniProt P42336); experiment: Inhibition of PIK3CA (unknown origin) at 10 uM by Ambit Kinomescan binding assay
[5] = target: Serine/threonine-protein kinase PAK 1 (Homo sapiens) (UniProt Q13153); experiment: Inhibition of PAK1 (unknown origin) at 10 uM by Ambit Kinomescan binding assay
[6] = target: Ribosomal protein S6 kinase alpha-1 (Homo sapiens) (UniProt Q15418); experiment: Inhibition of RSK1 Protein Kinase Domain in human A-375 cells at 5 uM by KiNativ Profiling analysis relative to control; type: cell-based
[7] = target: Fibroblast growth factor receptor 1 (Homo sapiens) (UniProt P11362); experiment: Inhibition of FGFR1 (unknown origin) at 10 uM by Ambit Kinomescan binding assay relative to control; values are per cent of control
[8] = target: Tyrosine-protein kinase Fgr (Homo sapiens) (UniProt P09769); experiment: Inhibition of FGR (unknown origin) at 10 uM by Ambit Kinomescan binding assay relative to control
[9] = target: Tyrosine-protein kinase Yes (Homo sapiens) (UniProt P07947); experiment: Inhibition of YES (unknown origin) at 10 uM by Ambit Kinomescan binding assay relative to control; values are per cent of control
[10] = target: Serine/threonine-protein kinase Chk2 (Homo sapiens) (UniProt O96017); experiment: Inhibition of CHK2 K2 labeling site in human Huh-7 cells at 1 uM by KiNativ Profiling analysis relative to control; type: cell-based
[11] = target: T1, Serine/threonine-protein kinase Nek1 (Homo sapiens) (UniProt Q96PY6); experiment: Inhibition of NEK1 K2 labeling site in human Huh-7 cells at 10 uM by KiNativ Profiling analysis relative to control; type: cell-based
T1 sequence (whole entry): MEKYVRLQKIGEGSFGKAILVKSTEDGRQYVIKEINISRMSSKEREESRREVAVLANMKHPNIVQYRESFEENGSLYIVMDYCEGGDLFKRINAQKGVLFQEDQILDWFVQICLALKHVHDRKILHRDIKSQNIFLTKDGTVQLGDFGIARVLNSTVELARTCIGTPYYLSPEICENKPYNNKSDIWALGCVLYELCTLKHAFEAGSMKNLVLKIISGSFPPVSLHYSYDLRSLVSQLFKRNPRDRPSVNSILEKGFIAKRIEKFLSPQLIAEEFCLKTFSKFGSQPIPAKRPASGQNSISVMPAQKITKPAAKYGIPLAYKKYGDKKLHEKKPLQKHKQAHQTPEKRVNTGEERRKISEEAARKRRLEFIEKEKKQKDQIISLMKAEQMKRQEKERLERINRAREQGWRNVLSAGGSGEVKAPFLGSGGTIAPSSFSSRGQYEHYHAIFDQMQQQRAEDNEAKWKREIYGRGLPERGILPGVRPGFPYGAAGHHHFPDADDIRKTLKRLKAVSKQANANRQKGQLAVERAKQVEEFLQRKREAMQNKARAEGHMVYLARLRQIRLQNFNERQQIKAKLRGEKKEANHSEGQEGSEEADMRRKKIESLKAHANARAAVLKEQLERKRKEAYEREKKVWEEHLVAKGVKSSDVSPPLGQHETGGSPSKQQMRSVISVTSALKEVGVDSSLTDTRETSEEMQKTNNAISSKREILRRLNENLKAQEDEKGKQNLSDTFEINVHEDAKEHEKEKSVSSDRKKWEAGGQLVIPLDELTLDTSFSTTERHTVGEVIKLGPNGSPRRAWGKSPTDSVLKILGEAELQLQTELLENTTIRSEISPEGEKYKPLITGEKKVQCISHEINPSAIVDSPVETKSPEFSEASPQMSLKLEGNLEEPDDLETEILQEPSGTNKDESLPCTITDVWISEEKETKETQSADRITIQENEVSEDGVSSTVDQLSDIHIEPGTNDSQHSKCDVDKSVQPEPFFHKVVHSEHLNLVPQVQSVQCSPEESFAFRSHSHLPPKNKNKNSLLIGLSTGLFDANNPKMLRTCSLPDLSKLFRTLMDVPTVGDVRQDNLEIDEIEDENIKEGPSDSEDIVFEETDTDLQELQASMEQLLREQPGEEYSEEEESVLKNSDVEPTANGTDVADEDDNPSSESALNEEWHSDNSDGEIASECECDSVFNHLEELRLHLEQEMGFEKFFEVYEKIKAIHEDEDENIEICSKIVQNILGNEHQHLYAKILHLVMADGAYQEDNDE

[12] = target: Mitogen-activated protein kinase 3 (Homo sapiens) (UniProt P27361); experiment: Inhibition of Erk1 Lys2 labeling site harbouring YIHSANVLHRDLKPSNLLINTTCDLK in human A-375 cells at 0.05 uM by KiNativ Profiling analysis relative to control; type: cell-based
[13] = target: TRAF2 and NCK-interacting protein kinase (Homo sapiens) (UniProt Q9UKE5); experiment: Inhibition of TNIK (unknown origin) at 1 uM by Ambit Kinomescan binding assay relative to control
[14] = target: Insulin receptor-related protein (Homo sapiens) (UniProt P14616); experiment: Inhibition of INSRR (unknown origin) at 1 uM by Ambit Kinomescan binding assay relative to control; values are per cent of control
[15] = target: Serine/threonine-protein kinase PAK 6 (Homo sapiens) (UniProt Q9NQU5); experiment: Inhibition of PAK6 (unknown origin) at 1 uM by Ambit Kinomescan binding assay relative to control; values are per cent of control
[16] = target: Tyrosine-protein kinase Blk (Homo sapiens) (UniProt P51451); experiment: Inhibition of BLK (unknown origin) at 1 uM by Ambit Kinomescan binding assay relative to control; values are per cent of control

Sequence of Phosphatidylinositol 4,5-bisphosphate 3-kinase catalytic subunit alpha isoform (Homo sapiens) (P42336 whole entry, canonical isoform): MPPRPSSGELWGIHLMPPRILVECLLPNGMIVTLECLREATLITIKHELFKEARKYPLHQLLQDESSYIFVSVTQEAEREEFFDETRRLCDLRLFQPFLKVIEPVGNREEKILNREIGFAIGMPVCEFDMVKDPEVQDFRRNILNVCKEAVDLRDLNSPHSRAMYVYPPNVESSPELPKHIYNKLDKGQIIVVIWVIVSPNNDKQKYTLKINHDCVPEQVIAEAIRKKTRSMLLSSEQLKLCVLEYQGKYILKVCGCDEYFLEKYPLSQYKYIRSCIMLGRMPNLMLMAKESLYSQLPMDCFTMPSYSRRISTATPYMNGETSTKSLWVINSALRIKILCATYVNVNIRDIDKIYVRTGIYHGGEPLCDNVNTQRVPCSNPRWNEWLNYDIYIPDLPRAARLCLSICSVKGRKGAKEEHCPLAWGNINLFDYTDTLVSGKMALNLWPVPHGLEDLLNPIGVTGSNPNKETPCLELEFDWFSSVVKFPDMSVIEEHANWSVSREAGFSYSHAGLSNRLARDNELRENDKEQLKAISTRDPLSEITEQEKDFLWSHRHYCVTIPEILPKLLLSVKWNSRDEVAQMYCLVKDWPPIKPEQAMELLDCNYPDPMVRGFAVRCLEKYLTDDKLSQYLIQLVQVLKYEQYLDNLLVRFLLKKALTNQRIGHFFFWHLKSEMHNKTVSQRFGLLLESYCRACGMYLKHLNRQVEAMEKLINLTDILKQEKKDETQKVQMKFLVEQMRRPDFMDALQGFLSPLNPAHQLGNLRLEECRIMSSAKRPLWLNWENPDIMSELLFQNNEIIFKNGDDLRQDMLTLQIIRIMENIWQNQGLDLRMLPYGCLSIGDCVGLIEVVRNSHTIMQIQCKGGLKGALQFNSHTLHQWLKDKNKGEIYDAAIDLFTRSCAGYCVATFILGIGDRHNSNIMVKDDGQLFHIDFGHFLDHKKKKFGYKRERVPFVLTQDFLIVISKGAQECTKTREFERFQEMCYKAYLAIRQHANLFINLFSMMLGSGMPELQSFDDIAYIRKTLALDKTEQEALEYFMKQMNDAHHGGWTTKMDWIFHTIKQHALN
Sequence of TRAF2 and NCK-interacting protein kinase (Homo sapiens) (Q9UKE5 whole entry, looked up): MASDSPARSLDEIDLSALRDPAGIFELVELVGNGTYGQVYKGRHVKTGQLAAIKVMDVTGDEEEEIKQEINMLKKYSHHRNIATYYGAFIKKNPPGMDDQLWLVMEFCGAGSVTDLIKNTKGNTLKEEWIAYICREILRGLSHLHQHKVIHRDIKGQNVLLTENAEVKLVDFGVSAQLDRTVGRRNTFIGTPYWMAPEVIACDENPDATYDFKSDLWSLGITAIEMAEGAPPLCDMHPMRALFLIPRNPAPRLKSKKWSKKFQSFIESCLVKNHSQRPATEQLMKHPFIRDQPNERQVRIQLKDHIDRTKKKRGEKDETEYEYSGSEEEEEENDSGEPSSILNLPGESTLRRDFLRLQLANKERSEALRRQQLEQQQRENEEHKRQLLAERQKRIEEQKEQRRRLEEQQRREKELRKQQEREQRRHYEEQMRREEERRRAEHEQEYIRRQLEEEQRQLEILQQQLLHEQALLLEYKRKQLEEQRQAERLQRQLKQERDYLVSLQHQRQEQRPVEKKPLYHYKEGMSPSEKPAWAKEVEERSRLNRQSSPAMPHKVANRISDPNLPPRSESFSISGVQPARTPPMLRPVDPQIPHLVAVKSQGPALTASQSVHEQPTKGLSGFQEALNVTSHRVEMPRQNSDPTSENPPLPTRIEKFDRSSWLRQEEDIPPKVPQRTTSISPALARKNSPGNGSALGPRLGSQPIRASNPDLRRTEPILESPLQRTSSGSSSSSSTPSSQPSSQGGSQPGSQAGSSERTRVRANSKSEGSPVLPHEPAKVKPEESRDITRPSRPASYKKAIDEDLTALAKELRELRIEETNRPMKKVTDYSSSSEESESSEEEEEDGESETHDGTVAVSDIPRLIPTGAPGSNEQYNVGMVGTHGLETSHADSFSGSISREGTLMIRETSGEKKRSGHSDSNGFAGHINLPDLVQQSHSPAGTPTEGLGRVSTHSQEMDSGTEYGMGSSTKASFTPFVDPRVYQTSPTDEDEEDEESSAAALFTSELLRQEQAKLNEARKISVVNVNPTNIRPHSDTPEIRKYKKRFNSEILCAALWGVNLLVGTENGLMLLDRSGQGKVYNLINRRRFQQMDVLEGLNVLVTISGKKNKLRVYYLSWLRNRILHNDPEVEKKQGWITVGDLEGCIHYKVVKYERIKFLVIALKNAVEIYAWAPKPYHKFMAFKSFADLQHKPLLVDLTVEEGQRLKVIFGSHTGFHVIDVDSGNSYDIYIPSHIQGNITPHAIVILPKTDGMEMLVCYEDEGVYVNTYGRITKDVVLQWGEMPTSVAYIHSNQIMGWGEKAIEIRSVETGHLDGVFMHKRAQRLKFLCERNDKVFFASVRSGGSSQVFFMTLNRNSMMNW
Sequence of Serine/threonine-protein kinase PAK 1 (Homo sapiens) (Q13153 whole entry, looked up, the tested form may be a part): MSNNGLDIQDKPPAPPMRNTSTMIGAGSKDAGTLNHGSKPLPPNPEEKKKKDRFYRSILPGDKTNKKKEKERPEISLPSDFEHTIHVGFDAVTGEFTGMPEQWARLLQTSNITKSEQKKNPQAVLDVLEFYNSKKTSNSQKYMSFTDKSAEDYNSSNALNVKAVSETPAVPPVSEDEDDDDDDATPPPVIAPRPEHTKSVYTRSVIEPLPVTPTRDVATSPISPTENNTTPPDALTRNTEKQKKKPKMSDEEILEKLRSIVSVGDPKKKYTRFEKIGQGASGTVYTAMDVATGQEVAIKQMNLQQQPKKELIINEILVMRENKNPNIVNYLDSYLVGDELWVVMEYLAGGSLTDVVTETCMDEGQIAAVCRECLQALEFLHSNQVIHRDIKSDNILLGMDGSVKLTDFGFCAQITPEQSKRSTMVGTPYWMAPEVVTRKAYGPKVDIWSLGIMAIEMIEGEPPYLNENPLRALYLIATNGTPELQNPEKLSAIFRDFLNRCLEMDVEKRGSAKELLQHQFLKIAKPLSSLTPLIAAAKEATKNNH
Sequence of Serine/threonine-protein kinase PAK 6 (Homo sapiens) (Q9NQU5 whole entry, looked up): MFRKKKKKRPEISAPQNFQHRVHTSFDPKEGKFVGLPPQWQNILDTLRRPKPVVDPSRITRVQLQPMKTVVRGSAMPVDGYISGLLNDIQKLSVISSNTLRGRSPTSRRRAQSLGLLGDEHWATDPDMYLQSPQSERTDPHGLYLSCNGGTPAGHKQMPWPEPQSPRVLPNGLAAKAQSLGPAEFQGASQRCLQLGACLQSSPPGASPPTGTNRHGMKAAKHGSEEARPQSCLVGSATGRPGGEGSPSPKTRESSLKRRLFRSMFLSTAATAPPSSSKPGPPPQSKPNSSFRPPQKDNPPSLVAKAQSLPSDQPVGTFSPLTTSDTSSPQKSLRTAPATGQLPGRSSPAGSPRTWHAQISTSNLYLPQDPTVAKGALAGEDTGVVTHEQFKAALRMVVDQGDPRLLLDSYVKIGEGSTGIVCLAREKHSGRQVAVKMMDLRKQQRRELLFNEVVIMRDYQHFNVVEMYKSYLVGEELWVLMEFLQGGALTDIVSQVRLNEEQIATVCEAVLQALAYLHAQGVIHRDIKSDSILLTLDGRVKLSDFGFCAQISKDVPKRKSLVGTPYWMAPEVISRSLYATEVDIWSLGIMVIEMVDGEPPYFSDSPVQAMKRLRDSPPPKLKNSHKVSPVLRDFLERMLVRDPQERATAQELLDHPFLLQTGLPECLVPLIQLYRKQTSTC
Sequence of Ribosomal protein S6 kinase alpha-3 (Homo sapiens) (P51812 whole entry, the tested form may be a part): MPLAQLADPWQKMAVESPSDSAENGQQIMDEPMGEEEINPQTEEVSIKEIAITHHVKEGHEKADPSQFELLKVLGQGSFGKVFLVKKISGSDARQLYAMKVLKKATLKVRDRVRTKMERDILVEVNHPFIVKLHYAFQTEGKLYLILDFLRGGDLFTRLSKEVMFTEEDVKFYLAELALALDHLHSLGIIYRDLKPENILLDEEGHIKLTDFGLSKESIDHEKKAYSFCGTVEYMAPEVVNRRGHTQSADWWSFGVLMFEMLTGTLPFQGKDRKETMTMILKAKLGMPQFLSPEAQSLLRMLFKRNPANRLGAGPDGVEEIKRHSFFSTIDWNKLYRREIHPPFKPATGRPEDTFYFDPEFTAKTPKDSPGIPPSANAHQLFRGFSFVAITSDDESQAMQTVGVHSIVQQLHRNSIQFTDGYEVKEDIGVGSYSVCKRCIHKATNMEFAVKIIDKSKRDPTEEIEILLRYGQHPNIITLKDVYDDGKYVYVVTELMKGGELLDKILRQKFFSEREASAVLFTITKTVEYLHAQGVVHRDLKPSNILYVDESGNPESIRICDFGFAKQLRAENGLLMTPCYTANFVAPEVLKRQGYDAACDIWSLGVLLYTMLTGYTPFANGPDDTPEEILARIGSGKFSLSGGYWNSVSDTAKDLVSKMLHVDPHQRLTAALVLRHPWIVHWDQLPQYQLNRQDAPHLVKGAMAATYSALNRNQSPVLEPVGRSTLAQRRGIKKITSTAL
Sequence of Tyrosine-protein kinase Yes (Homo sapiens) (P07947 2-543 limits assumed): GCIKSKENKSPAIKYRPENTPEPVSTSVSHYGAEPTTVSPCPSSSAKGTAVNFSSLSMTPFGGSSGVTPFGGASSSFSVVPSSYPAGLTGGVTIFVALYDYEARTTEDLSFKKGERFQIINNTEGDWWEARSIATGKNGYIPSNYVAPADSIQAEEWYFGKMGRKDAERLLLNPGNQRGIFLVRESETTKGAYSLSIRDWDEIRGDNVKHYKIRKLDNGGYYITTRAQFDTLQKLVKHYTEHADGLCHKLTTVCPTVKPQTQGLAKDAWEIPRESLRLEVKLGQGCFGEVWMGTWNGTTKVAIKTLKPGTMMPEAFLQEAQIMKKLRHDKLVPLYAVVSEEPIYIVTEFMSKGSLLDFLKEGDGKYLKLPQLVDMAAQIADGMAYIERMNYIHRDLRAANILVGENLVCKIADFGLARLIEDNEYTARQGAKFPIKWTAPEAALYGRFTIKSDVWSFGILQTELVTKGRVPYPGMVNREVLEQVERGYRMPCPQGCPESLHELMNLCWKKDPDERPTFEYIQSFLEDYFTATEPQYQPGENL

Q: Which inhibition [1] does the source give for CNc1cc(Oc2cc(C(=O)Nc3cc(N4CCN(C)CC4)cc(C(F)(F)F)c3)ccc2C)ncn1 here?
A: The inhibition was -2.2%.

Q: What about the inhibition [2] of the same molecule?
A: The inhibition was -8.6%.

Q: What about the inhibition [3] of the same molecule?
A: Its inhibition is 29.3%.

Q: With CCN1CCN(Cc2ccc(NC(=O)c3ccc(C)c(Oc4ccnc5[nH]ccc45)c3)cc2C(F)(F)F)CC1 as the molecule, how does the inhibition [4] read?
A: The inhibition was “inactive”.

Q: What about the inhibition [5] of the same molecule?
A: Its inhibition is “inactive”.

Q: And the inhibition [6]?
A: Its inhibition is 5.8%.

Q: What about the % of control [7] of the same molecule?
A: Its % of control is 1.7%.

Q: What about the inhibition [8] of the same molecule?
A: Its inhibition is 1.2%.

Q: What about the residual activity [9] of the same molecule?
A: The residual activity was 1.6%.

Q: And the inhibition [10]?
A: Its inhibition is 17.5%.

Q: And the inhibition [11]?
A: Its inhibition is -4.4%.

Q: With CCN1CCN(Cc2ccc(NC(=O)c3ccc(C)c(/C=C/c4cnc5[nH]ccc5c4OC)c3)cc2C(F)(F)F)CC1 as the molecule, how does the inhibition [12] read?
A: Its inhibition is -5.4%.

Q: What about the inhibition [13] of the same molecule?
A: The inhibition was 14%.

Q: And the residual activity [14]?
A: Its residual activity is 100%.

Q: And the residual activity [15]?
A: Its residual activity is 100%.

Q: And the residual activity [16]?
A: The residual activity was 0.25%.
